The source of these data is patent US20200239530A1, “COMPOUNDS AND METHODS OF MODULATING PROTEIN DEGRADATION” (Vividion Therapeutics, Inc., priority 2017, published 2020).

SMILES strings stand for the structures. Where two headings read alike, the source gives them in different places.

Assay in all cases: Cysteine liganding, probe competition
What all share (assay type): binding

One test has as its target T1, UniProt Q5W0B1 (Homo sapiens, UniProt Q5W0B1).
T1 construct: 200 μL of lysate containing 5 mg/ml proteome was treated with 2 μL of 100× compound stock; endogenous in cells
T1 sequence (Q5W0B1 1-726): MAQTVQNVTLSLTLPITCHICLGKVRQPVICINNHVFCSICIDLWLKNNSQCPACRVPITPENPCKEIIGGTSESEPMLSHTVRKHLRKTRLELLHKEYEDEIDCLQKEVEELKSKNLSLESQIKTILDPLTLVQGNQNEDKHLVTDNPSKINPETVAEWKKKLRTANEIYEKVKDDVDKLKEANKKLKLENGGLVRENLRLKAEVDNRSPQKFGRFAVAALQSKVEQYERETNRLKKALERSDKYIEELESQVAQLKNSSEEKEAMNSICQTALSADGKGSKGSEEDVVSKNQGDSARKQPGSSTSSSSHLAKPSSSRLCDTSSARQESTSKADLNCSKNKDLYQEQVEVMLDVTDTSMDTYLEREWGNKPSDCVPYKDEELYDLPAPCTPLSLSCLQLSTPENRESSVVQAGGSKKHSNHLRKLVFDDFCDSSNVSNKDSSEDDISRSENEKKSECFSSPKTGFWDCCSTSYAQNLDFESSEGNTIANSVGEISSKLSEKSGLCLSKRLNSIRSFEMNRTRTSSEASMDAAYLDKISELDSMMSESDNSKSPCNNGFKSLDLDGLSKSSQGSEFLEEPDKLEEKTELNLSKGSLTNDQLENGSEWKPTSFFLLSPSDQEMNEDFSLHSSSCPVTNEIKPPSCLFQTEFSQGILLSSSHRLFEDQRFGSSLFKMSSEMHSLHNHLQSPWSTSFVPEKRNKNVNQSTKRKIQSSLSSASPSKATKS
The source says: (§1) The following 96-well sample prep protocol was used for sample preparation.

The target of another test is T2, UniProt Q6PJ21 (Homo sapiens, UniProt Q6PJ21).
T2 construct: 200 μL of lysate containing 5 mg/ml proteome was treated with 2 μL of 100× compound stock; endogenous in cells
T2 sequence (Q6PJ21 1-355): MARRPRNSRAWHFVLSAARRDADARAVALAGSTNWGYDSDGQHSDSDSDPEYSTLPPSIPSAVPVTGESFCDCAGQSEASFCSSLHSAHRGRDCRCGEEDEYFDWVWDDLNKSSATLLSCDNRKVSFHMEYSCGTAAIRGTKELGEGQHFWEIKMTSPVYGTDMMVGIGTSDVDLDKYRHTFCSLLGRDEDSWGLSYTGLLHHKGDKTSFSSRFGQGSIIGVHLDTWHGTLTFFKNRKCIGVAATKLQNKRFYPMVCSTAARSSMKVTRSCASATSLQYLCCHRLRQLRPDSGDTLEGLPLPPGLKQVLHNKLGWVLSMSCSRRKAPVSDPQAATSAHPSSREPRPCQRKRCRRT
The following applies: for inhibition at 100 µM / inhibition at 500 µM: read-out: percent_inhibition.
Excerpt: as §1

Another test deals with T3, UniProt Q13064 (Homo sapiens, UniProt Q13064).
T3 construct: Cells were resuspended in cold PBS on ice and sonicated with a probe sonicator to achieve lysis; endogenous in cells
T3 sequence (Q13064 1-507): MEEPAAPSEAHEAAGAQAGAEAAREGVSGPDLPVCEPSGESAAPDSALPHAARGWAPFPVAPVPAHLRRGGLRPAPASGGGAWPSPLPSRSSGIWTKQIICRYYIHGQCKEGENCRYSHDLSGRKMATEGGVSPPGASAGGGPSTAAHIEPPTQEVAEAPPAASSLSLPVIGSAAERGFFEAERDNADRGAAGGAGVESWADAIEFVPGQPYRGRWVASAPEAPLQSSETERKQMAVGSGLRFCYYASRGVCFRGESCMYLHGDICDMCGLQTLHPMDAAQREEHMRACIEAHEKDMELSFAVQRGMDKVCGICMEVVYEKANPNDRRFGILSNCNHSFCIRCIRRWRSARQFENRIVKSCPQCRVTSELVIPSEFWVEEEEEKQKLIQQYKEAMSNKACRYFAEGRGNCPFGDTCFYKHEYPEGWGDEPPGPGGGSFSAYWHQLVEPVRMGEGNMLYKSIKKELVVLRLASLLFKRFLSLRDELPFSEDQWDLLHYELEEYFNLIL
Excerpt: as §1

For the next test, the target named is T4, UniProt Q7Z3V4 (Homo sapiens, UniProt Q7Z3V4).
T4 construct: 200 μL of lysate containing 5 mg/ml proteome was treated with 2 μL of 100× compound stock; endogenous in cells
T4 sequence (Q7Z3V4 1-1068): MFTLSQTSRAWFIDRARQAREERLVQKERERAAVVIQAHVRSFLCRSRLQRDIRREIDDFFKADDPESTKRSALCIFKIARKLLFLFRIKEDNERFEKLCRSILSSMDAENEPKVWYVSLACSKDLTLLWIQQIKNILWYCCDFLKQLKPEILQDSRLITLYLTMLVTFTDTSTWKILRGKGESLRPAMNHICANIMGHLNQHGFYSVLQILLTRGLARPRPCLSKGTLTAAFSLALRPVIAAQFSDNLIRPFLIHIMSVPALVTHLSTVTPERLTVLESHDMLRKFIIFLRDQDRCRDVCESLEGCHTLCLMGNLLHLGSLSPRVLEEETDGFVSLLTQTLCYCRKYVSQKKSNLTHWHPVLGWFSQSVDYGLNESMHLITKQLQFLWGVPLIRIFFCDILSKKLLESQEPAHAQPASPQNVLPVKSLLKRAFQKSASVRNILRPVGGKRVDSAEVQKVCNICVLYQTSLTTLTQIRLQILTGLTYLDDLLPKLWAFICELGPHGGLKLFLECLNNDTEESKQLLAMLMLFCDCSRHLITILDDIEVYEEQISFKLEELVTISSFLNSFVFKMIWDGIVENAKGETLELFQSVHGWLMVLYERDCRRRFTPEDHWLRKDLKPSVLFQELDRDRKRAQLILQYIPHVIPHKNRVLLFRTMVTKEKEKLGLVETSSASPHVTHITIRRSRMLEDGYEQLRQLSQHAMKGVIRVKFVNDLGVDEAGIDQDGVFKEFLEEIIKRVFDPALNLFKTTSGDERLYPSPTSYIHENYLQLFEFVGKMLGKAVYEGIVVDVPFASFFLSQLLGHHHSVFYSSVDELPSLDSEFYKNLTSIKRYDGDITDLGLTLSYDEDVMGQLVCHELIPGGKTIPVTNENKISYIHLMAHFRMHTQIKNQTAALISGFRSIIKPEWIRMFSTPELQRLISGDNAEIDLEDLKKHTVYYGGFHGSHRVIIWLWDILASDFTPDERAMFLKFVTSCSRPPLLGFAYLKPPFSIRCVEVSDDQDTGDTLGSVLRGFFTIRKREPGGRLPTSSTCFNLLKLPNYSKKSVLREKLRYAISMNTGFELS
Excerpt: as §1

[1] abbreviates: 500 uM, read-out: percent_inhibition.
The mark [2] stands for this setting: 500 uM, read-out: percent inhibition.

Consider `COc1ccc2c(c1)CCCN2C(=O)CCl` [KB02], for which the inhibition at 100 µM on UniProt Q5W0B1 (100 uM, read-out: percent_inhibition) came to 17%; on UniProt Q6PJ21 (100 uM) it was 5%; on UniProt Q13064 (100 uM, read-out: percent inhibition) it was 2%; on UniProt Q7Z3V4 (100 uM, read-out: KB02_100 uM_percent_inhibition), 42%. For the same molecule, the inhibition at 500 µM on UniProt Q5W0B1 (setting [1]) is 54%; at UniProt Q6PJ21 (500 uM) it was 8%; at UniProt Q13064 (setting [2]), 37%; on UniProt Q7Z3V4 (500 uM, read-out: KB02_500 uM_percent_inhibition), 86%.
For the molecule `C=CC(=O)N(c1ccccc1)c1ccc(Br)cc1` [KB05], the inhibition at 500 µM at UniProt Q5W0B1 (setting [1]) worked out at 48%; at UniProt Q6PJ21 (500 uM), 30%; on UniProt Q13064 (setting [2]), 23%; on UniProt Q7Z3V4 (500 uM, read-out: KB05_500 uM_percent_inhibition) it was 64%. For the same molecule, the inhibition at 100 µM came out at 4% on UniProt Q6PJ21 (100 uM) and 8% on UniProt Q7Z3V4 (100 uM, read-out: KB05_100 uM_percent_inhibition).
Take `O=C(CCl)Nc1cc(C(F)(F)F)cc(C(F)(F)F)c1` [KBO3]: the percent_inhibition came to 28% on UniProt Q5W0B1 (500 uM), 25% at UniProt Q6PJ21 (100 uM) and 52% on UniProt Q6PJ21 (500 uM). Besides, the percent inhibition on UniProt Q13064 (500 uM) is on record as 16%. On UniProt Q7Z3V4 (100 uM), the “KB03_100 uM_percent_inhibition” value turned out to be 33%. Moreover, the “KB03_500 uM_percent_inhibition” value on UniProt Q7Z3V4 (500 uM) was 56%.
